Values of other authors as cited in US12678402B2 (Nasus Pharma Ltd., priority 2020, dated 2026).
Like-named read-outs stand apart in the source and are kept apart here.

Experiments:
[1] = IN 1 mg up to 12 mg, different indications and formulations
nasal epithelia = settings: in vitro; dissolves in nasal fluid

Cbaseline Mean (±SD) (0.3 mg IM): 35 ± 23 pg/mL
Tmax (0.3 mg IM): 1.12 ± 0.717 h
Cbaseline Mean (±SD) (5 mg IN): 8 ± 6 pg/mL
Structure (SMILES): CNC[C@H](O)c1ccc(O)c(O)c1 [Epinephrine]
adverse events observed (IN epinephrine in saline formulation, healthy adults): transient tremor was observed in one subject and palpitation in two subjects
heart rate and blood pressure changes (IN epinephrine in saline formulation, healthy adults, at Tmax): Increase in heart rate, and diastolic and systolic blood pressures occurred at Tmax. in most subjects
serious adverse effects (after IN epinephrine administration, healthy adults): No serious adverse effects were observed
serious adverse events [1]: no serious adverse events
absorption after deposition of the powder in the nasal cavity (nasal epithelia): rapidly absorbed through the nasal epithelia
